How the values were obtained:
[1] = system: PN0110 (Enterococcus faecium); details: 37° C.
Protocol: (§1) Pure strains of 1-butanol resistant bacteria were isolated from the enrichment cultures as follows. The cells grown in an enrichment culture containing 1.2% or 1.6% 1-butanol were serially diluted, and the serial dilutions were plated on Luria Bertani (LB) agar medium, modified LB agar (i.e., LB agar supplemented with 0.5% sucrose, 0.5% glucose, 0.5% fructose, 0.5% sodium pyruvate, 2 mM MgCl2, 0.7 mM CaCl2, 50 μM MnCl2, 1 μM FeCl3, 1 μM ZnCl2, 1.72 μM CuCl2, 2.53 μM CoCl2, 2.42 μM Na2MoO4 and 2 μM thiamine hydrochloride) or minimal enrichment medium with 2.0% Difco™ Agar Noble, (BD Diagnostic Systems, Sparks, Md.), all without 1-butanol. Colonies were then inoculated from the agar medium into minimal enrichment medium (described above) without 1-butanol in the wells of a microtiter plate. […] The growth was monitored (by OD600) of isolates cultured in S30L medium (i.e., 10 mM ammonium sulfate, 5 mM potassium phosphate buffer, pH 7.0, 50 mM MOPS, pH 7.0, 2 mM MgCl2, 0.7 mM CaCl2, 50 μM MnCl2, 1 μM FeCl3, 1 μM ZnCl2, 1.72 μM CuCl2, 2.53 μM CoCl2, 2.42 μM Na2MoO4, 2 μM thiamine hydrochloride, 0.01 M glucose, and 0.2% yeast extract) at 37° C. in the absence (control) and in the presence of from 1.2% to 3.0% w/v of 1-butanol and the doubling time for each culture was calculated from the logarithmic part of the growth curve (doubling time=0.693/growth rate).

[2] = system: isolates from the enrichments; details: 37° C., microtiter plate
Protocol: as §1

[3] = system: isolates listed in Table 5 (PN0048, PN0197-10, PN0133); assay: Growth on solid medium (S20 agar replica plating), isolates listed in Table 5; assay type: cell-based, Enterococcus; details: 37° C., 24 to 72 h
Protocol: Phylogenetic characterization of the microbial consortium in the anaerobic bioreactor and isolation of pure strains of 1-butanol resistant bacteria from this bioreactor were performed as follows. Samples of cells taken from the bioreactor at various times and from the bioreactor waste jug were serially diluted, and the serial dilutions were plated on S20 agar medium (S20 medium with 1.6% DifCo™ Agar, Noble-Solidifying agent) without 1-butanol. Colonies were then inoculated from the S20 agar medium into 1.2 mL of S20 medium without 1-butanol in the wells of a square-well microtiter plate (Beckman Coulter Inc, Fullerton, Calif.; Catalog No. 069681). […] Butanol tolerance was determined by growth in the presence of 1-butanol as determined by measuring increases in optical density at 595 nm (OD595) on a microtiter plate reader (HTS 7000 Plus Bio Assay Reader, PerkinElmer Life and Analytical Sciences Inc., Wellesley, Mass.). Isolates that had OD595 readings in the range of 0.1 to 0.8 after growth for 48 h at 37° C. with shaking were selected for further tolerance testing. […] The IC50 values of the isolated strains were determined at 37° C., for 1-butanol, 2-butanol, isobutanol, 2-butanone (also called methyl ethyl ketone (MEK)) and ethanol, following the method described in Example 1.

[4] = system: enrichment cultures from environmental sludge samples; details: 37° C.
Protocol: Environmental sludge samples were obtained from wastewater treatment facilities at several E.I. du Pont de Nemours and Company sites. Enrichment cultures were established for each sample by inoculating a 125-mL screw cap Erlenmeyer flask with 1 mL of a sludge sample in 10 mL of minimal enrichment medium (i.e., 10 mM ammonium sulfate, 50 mM potassium phosphate buffer, pH 7.0, 2 mM MgCl2, 0.7 mM CaCl2, 50 μM MnCl2, 1 μM FeCl3, 1 μM ZnCl2, 1.72 μM CuCl2, 2.53 μM CoCl2, 2.42 μM Na2MoO4, 2 μM thiamine hydrochloride, 0.5% glucose, 0.5% fructose, 0.5% sucrose and 0.1% yeast extract). The enrichment cultures were incubated at 37° C. with shaking. After 24 h of incubation, the enrichment cultures were diluted 1:10 into fresh medium that contained 0.8%, 1.2% or 1.6% w/v 1-butanol (Sigma Chemical Co.; molecular biology grade (greater than or equal to 99% purity)). Incubation continued under the same conditions. Cultures with the highest level of 1-butanol allowing significant growth (e.g., a culture with an initial OD600 of approximately 0.1 that increased within 24 to 48 h to an OD600 of approximately 1.0) were then diluted 1:10 into fresh medium that contained higher levels of 1-butanol to select for increased tolerance to 1-butanol.

[5] = system: most microorganisms described in the art; details: liquid medium; 37° C.; cited from earlier work
[6] = system: Lactococcus lactis overexpressing GroESL; details: Desmond et al.; equals 0.4% w/v; cited from earlier work
[7] = system: Lactobacillus paracasei overexpressing GroESL; details: Desmond et al.; equals 0.4% w/v; cited from earlier work
[8] = liquid minimal enrichment medium, shaking

CCCCO [1-butanol]
concentration in solid medium on which the strain was able to grow [1]: 2.5 % w/v
concentration in liquid medium at which several isolates displayed growth [2]: at least 2.0%
concentration on solid medium at which isolates displayed growth [3]: ≥ 2.5%
concentration in whose presence none of the enrichment cultures grew ([4]; liquid medium): 2.0%
concentration in whose presence enrichment cultures from some sites grew [4, 8]: 1.6%
concentration in whose presence most of the enrichment cultures grew [4, 8]: 1.2%
concentration at which growth is totally inhibited [5]: less than 2.0 % w/v
concentration in whose presence strains were able to grow [6]: 0.5 % volume/volume (v/v)
concentration in whose presence strains were able to grow [7]: 0.5 % volume/volume (v/v)

— patent publication US7659104B2, “Solvent tolerant microorganisms and methods of isolation” (E.I. du Pont de Nemours and Company, priority 2006, dated 2010)
